A word on the EC50: it is the concentration needed to bring the measured effect to its halfway point. Read a high EC50 as lower potency in that assay.

For this assay, the target named is glucagon receptor (Homo sapiens, UniProt P47871). In words: cell-based.
glucagon receptor, sequence (P47871 26-477): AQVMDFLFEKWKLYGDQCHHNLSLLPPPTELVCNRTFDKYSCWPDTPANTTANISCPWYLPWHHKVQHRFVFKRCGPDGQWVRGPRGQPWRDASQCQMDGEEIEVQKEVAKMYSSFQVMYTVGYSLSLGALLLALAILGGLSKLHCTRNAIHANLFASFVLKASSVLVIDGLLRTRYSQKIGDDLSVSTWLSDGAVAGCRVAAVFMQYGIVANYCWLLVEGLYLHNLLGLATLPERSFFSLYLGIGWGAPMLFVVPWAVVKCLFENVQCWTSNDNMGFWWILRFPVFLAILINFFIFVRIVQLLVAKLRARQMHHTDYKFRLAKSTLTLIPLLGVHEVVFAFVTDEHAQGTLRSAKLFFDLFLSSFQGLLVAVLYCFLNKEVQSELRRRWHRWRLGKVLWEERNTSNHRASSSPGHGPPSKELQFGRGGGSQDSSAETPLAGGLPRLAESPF
With `CC(C)C[C@H](NC(=O)[C@H](Cc1ccc(O)cc1)NC(=O)[C@H](CCCCN)NC(=O)[C@H](CO)NC(=O)[C@H](Cc1ccc(O)cc1)NC(=O)[C@H](CC(=O)O)NC(=O)[C@H](CO)NC(=O)[C@@H](NC(=O)[C@H](Cc1ccccc1)NC(=O)[C@@H](NC(=O)CNC(=O)[C@H](CCC(N)=O)NC(=O)[C@H](CO)NC(=O)[C@@H](N)Cc1c[nH]cn1)[C@@H](C)O)[C@@H](C)O)C(=O)N[C@@H](CC(=O)O)C(=O)N[C@@H](CO)C(=O)N[C@@H](CCCNC(=N)N)C(=O)N[C@@H](CCCNC(=N)N)C(=O)N[C@@H](C)C(=O)N[C@@H](CCC(N)=O)C(=O)N[C@@H](CCC(=O)O)C(=O)N[C@@H](Cc1ccccc1)C(=O)N[C@H](C(=O)N[C@@H](CCCCNC(=O)COCCOCCNC(=O)COCCOCCNC(=O)CC[C@H](NC(=O)CCCCCCCCCCCCCCCCC(=O)O)C(=O)O)C(=O)N[C@@H](CCCNC(=N)N)C(=O)N[C@@H](CC(C)C)C(=O)N[C@@H](CC(C)C)C(=O)N[C@@H](CC(N)=O)C(=O)N[C@H](C(N)=O)[C@@H](C)O)C(C)C` [Example 31, N^ε24-([2-[2-[2-[[2-[2-[2-[[(4S)-5-hydroxy-4-[(18-hydroxy-18-oxooctadecanoyl)amino]-5-oxopentanoyl]amino]ethoxy]ethoxy]acetyl]amino]ethoxy]ethoxy]acetyl])[Glu^21, Lys^24, Arg25 Leu^27,]Glucagon peptide amide], the EC50 was found to be 0.043 nM.
With `CSCC[C@H](NC(=O)[C@H](CC(C)C)NC(=O)[C@H](Cc1c[nH]c2ccccc12)NC(=O)[C@H](CCC(N)=O)NC(=O)[C@@H](NC(=O)[C@H](Cc1ccccc1)NC(=O)[C@H](CC(=O)O)NC(=O)[C@H](CCCCNC(=O)COCCOCCNC(=O)CC[C@H](NC(=O)CCCCCCCCCCCCCCCCC(=O)O)C(=O)O)NC(=O)[C@H](C)NC(=O)[C@H](CCCNC(=N)N)NC(=O)[C@H](CCCNC(=N)N)NC(=O)[C@H](CO)NC(=O)[C@H](CC(=O)O)NC(=O)[C@H](CC(C)C)NC(=O)[C@H](Cc1ccc(O)cc1)NC(=O)[C@H](CCCCN)NC(=O)[C@H](CO)NC(=O)[C@H](Cc1ccc(O)cc1)NC(=O)[C@H](CC(=O)O)NC(=O)[C@H](CO)NC(=O)[C@@H](NC(=O)[C@H](Cc1ccccc1)NC(=O)[C@@H](NC(=O)CNC(=O)[C@H](CCC(N)=O)NC(=O)[C@@H](CO)NC(=O)[C@@H](N)Cc1c[nH]cn1)[C@@H](C)O)[C@@H](C)O)C(C)C)C(=O)N[C@@H](CC(N)=O)C(=O)N[C@H](C(=O)N[C@@H](CCCCN)C(N)=O)[C@@H](C)O` [Example 23, N^α-(N^ε24 [2-[2-[2-[[(4S)-5-hydroxy-4-[(18-hydroxy-18-oxo-octadecanoyl)amino]-5-oxo-pentanoyl]amino]ethoxy]ethoxy]acetyl] [D-Ser^e, Lys^20] Glucagonyl) Lysinyl amide] the figure was 0.54 nM.
The value for `CC(C)C[C@H](NC(=O)[C@H](Cc1ccc(O)cc1)NC(=O)[C@H](CCCCN)NC(=O)[C@H](CO)NC(=O)[C@H](Cc1ccc(O)cc1)NC(=O)[C@H](CC(=O)O)NC(=O)[C@H](CO)NC(=O)[C@@H](NC(=O)[C@H](Cc1ccccc1)NC(=O)[C@@H](NC(=O)CNC(=O)[C@H](CCC(N)=O)NC(=O)[C@H](CO)NC(=O)[C@@H](N)Cc1c[nH]cn1)[C@@H](C)O)[C@@H](C)O)C(=O)N[C@@H](CC(=O)O)C(=O)N[C@@H](CO)C(=O)N[C@@H](CCCNC(=N)N)C(=O)N[C@@H](CCCNC(=N)N)C(=O)N[C@@H](C)C(=O)N[C@@H](CCC(N)=O)C(=O)N[C@@H](CC(=O)O)C(=O)N[C@@H](Cc1ccccc1)C(=O)N[C@H](C(=O)N[C@@H](CCCCNC(=O)CC[C@H](NC(=O)CC[C@H](NC(=O)COCCOCCNC(=O)COCCOCCNC(=O)CC[C@H](NC(=O)CCCCCCCCCCCCCCCCC(=O)O)C(=O)O)C(=O)O)C(=O)O)C(=O)N[C@@H](Cc1c[nH]c2ccccc12)C(=O)N[C@@H](CC(C)C)C(=O)N[C@@H](CC(C)C)C(=O)N[C@@H](CC(N)=O)C(=O)N1CCC[C@H]1C(=O)O)C(C)C` [Example 81, N^ε24-[(4S)-4-carboxy-4-[[(4S)-4-carboxy-4-[[2-[2-[2-[[2-[2-[2-[[(4S)-4-carboxy-4-(17-carboxyheptadecanoylamino)butanoyl]amino]ethoxy]ethoxy]acetyl]amino]ethoxy]ethoxy]acetyl]amino]butanoyl]amino]butanoyl]-[Lys^24,Leu^27,Pro^29]-Glucagon] was 0.156 nM.
With `CC(C)C[C@H](NC(=O)[C@H](CC(C)C)NC(=O)[C@H](Cc1c[nH]c2ccccc12)NC(=O)[C@H](CCC(N)=O)NC(=O)[C@@H](NC(=O)[C@H](Cc1ccccc1)NC(=O)[C@H](CC(=O)O)NC(=O)[C@H](CCC(N)=O)NC(=O)[C@H](C)NC(=O)[C@H](CCCNC(=N)N)NC(=O)[C@H](CCCNC(=N)N)NC(=O)[C@H](CO)NC(=O)[C@H](CC(=O)O)NC(=O)[C@H](CC(C)C)NC(=O)[C@H](Cc1ccc(O)cc1)NC(=O)[C@H](CCCCN)NC(=O)[C@H](CO)NC(=O)[C@H](Cc1ccc(O)cc1)NC(=O)[C@H](CC(=O)O)NC(=O)[C@H](CO)NC(=O)[C@@H](NC(=O)[C@H](Cc1ccccc1)NC(=O)[C@@H](NC(=O)CNC(=O)[C@H](CCC(N)=O)NC(=O)[C@H](CO)NC(=O)[C@@H](N)Cc1c[nH]cn1)[C@@H](C)O)[C@@H](C)O)C(C)C)C(=O)N[C@@H](CC(N)=O)C(=O)N[C@@H](CCCCNC(=O)COCCOCCNC(=O)COCCOCCNC(=O)CC[C@H](NC(=O)CCCCCCCCCCCCCCCCC(=O)O)C(=O)O)C(=O)O` [Example 10] the figure was 0.046 nM; with `CC(C)C[C@H](NC(=O)[C@H](Cc1ccc(O)cc1)NC(=O)[C@H](CCCCN)NC(=O)[C@H](CO)NC(=O)[C@H](Cc1ccc(O)cc1)NC(=O)[C@H](CC(=O)O)NC(=O)[C@H](CO)NC(=O)[C@@H](NC(=O)[C@H](Cc1ccccc1)NC(=O)[C@@H](NC(=O)CNC(=O)[C@H](CCC(N)=O)NC(=O)[C@H](CO)NC(=O)[C@@H](N)Cc1c[nH]cn1)[C@@H](C)O)[C@@H](C)O)C(=O)N[C@@H](CC(=O)O)C(=O)N[C@@H](CO)C(=O)N[C@@H](CCCNC(=N)N)C(=O)N[C@@H](CCCNC(=N)N)C(=O)N[C@@H](C)C(=O)N[C@@H](CCC(N)=O)C(=O)N[C@@H](CC(=O)O)C(=O)N[C@@H](Cc1ccccc1)C(=O)N[C@H](C(=O)N[C@@H](CCCCNC(=O)COCCOCCNC(=O)COCCOCCNC(=O)CC[C@H](NC(=O)CCCCCCCCCCCCCCCCC(=O)O)C(=O)O)C(=O)N[C@@H](Cc1c[nH]cn1)C(=O)N[C@@H](CC(C)C)C(=O)N[C@@H](CC(C)C)C(=O)N[C@@H](CC(N)=O)C(=O)N[C@H](C(=O)O)[C@@H](C)O)C(C)C` [Example 50, N^ε24-([2-[2-[2-[[2-[2-[2-[[(4S)-5-hydroxy-4-[(18-hydroxy-18-oxooctadecanoyl)amino]-5-oxopentanoyl]amino]ethoxy]ethoxy]acetyl]amino]ethoxy]ethoxy]acetyl]) [Lys^24,His^25,Leu^27] Glucagon], 0.194 nM.
Take `CC(C)C[C@H](NC(=O)[C@H](CC(C)C)NC(=O)[C@H](Cc1c[nH]c2ccccc12)NC(=O)[C@H](CCC(N)=O)NC(=O)[C@@H](NC(=O)[C@H](Cc1ccccc1)NC(=O)[C@H](CC(=O)O)NC(=O)[C@H](CCC(N)=O)NC(=O)[C@H](C)NC(=O)[C@H](CCCNC(=N)N)NC(=O)[C@H](CCCNC(=N)N)NC(=O)[C@H](CO)NC(=O)[C@H](CC(=O)O)NC(=O)[C@H](CC(C)C)NC(=O)[C@H](Cc1ccc(O)cc1)NC(=O)[C@H](CCCCN)NC(=O)[C@H](CO)NC(=O)[C@H](Cc1ccc(O)cc1)NC(=O)[C@H](CC(=O)O)NC(=O)[C@H](CO)NC(=O)[C@@H](NC(=O)[C@H](Cc1ccccc1)NC(=O)[C@@H](NC(=O)CNC(=O)[C@H](CCC(N)=O)NC(=O)[C@H](CO)NC(=O)[C@@H](N)Cc1c[nH]cn1)[C@@H](C)O)[C@@H](C)O)C(C)C)C(=O)N[C@@H](CC(N)=O)C(=O)N[C@@H](CCCCNC(=O)CC[C@H](NC(=O)CC[C@H](NC(=O)COCCOCCNC(=O)COCCOCCNC(=O)CC[C@H](NC(=O)CCCCCCCCCCCCCCCCC(=O)O)C(=O)O)C(=O)O)C(=O)O)C(=O)O` [Example 53, N^ε29-([(4S)-5-hydroxy-4-[[(4S)-5-hydroxy-4-[[2-[2-[2-[[2-[2-[2-[[(4S)-5-hydroxy-4-[(18-hydroxy-18-oxooctadecanoyl)amino]-5-oxopentanoyl]amino]ethoxy]ethoxy]acetyl]amino]ethoxy]ethoxy]acetyl]amino]-5-oxopentanoyl]amino]-5-oxopentanyl]) [Leu^27,Lys^29] Glucagon]: the EC50 stood at 0.095 nM.
Molecule `CC(C)C[C@H](NC(=O)[C@H](Cc1ccc(O)cc1)NC(=O)[C@H](CCCCN)NC(=O)[C@H](CO)NC(=O)[C@H](Cc1ccc(O)cc1)NC(=O)[C@H](CC(=O)O)NC(=O)[C@H](CO)NC(=O)[C@@H](NC(=O)[C@H](Cc1ccccc1)NC(=O)[C@@H](NC(=O)CNC(=O)[C@H](CCC(N)=O)NC(=O)[C@H](CO)NC(=O)[C@@H](N)Cc1c[nH]cn1)[C@@H](C)O)[C@@H](C)O)C(=O)N[C@@H](CC(=O)O)C(=O)N[C@@H](CO)C(=O)N[C@@H](CCCNC(=N)N)C(=O)N[C@@H](CCCNC(=N)N)C(=O)N[C@@H](C)C(=O)N[C@@H](CCC(N)=O)C(=O)N[C@@H](CC(=O)O)C(=O)N[C@@H](Cc1ccccc1)C(=O)N[C@H](C(=O)N[C@@H](CCC(N)=O)C(=O)N[C@@H](Cc1c[nH]c2ccccc12)C(=O)N[C@@H](CC(C)C)C(=O)N[C@@H](CC(C)C)C(=O)N[C@@H](CCCCNC(=O)COCCOCCNC(=O)COCCOCCNC(=O)CC[C@H](NC(=O)CC[C@H](NC(=O)CC[C@H](NC(=O)CCCCCCCCCCCCCCCCC(=O)O)C(=O)O)C(=O)O)C(=O)O)C(=O)N[C@H](C(=O)O)[C@@H](C)O)C(C)C` [Example 67, N^ε28-[2-[2-[2-[[2-[2-[2-[[(4S)-4-carboxy-4-[[(4S)-4-carboxy-4-[[(4S)-4-carboxy-4-(17-carboxyheptadecanoylamino)butanoyl]amino]butanoyl]amino]butanoyl]amino]ethoxy]ethoxy]acetyl]amino]ethoxy]ethoxy]acetyl]-[Leu^27,Lys^28]-Glucagon] registered an EC50 of 0.116 nM.

The values above are taken from patent publication US20160271263A1 (Novo Nordisk A/S, priority 2010, published 2016).
